Tests used:
MPC-HIF2a spheroids = assay: Growth of non-irradiated tumor spheroids; type: cell-based, mouse; conditions: 10 µM compound, linear regression between 0 and 9 days
Experimental: As a first pilot study, growth responses of MPC-HIF2α spheroids were investigated after two different radiation treatments such as single-dose external beam irradiation (X-ray) and incubation with [^177Lu]LuCl3, respectively. NO-COXIBs were tested at 10 µM for additional effects on radiation treatments against a vehicle-treated control (w/o) and celecoxib (Ce).
4. Growth-rate of tumor spheroids in the presence of NO -COXIBS without radiation treatment
Compound Diameter growth rate
Table S2. Effects of NO-COXIBs on spheroid growth; diameter growth rates of non-irradiated MPC-HIF2a spheroids in presence of 10 µM of compounds determined from linear regression between 0 and 9 days after treatment start; (w/o) vehicle control treated with DMSO

[1] = Fluorometric NO release assay (Griess assay); type: physicochemical; conditions: 24 h, 37 °C, relative to initial molar amount of compound; for thiol-dependent NO release: 2.5 mM cysteine; for spontaneous NO release: absence of cysteine
Experimental: The nitric oxide releasing properties of the nitroester-derivatives 5a–d, 5f, and 6a–d were evaluated using a fluorometric Griess assay in the presence and absence of cysteine to determine thiol-dependent and spontaneous release of nitric oxide (Figure 3).
Nitric oxide release of compounds within 24 h at 37 °C was measured using the fluorometric nitric oxide microplate assay kit ab65327 (Abcam, Cambridge, UK). For measurement of spontaneous release, 1.8 nmol of compounds were incubated in 75 µL Dulbecco’s PBS containing 0.05% v/v residual DMSO and 2.5 mM DTPA (pH = 7.1) for 24 h at 37 °C. Thiol-dependent release was measured accordingly in presence of 2.5 mM cysteine. Two series of nitrate standards were prepared (0.2−1 nmol) in 75 µL incubation buffer, in presence or absence of cysteine, respectively. According to the manufacturer’s instructions, all nitrate content in samples and standards was enzymatically converted into nitrite through incubation with nitrate reductase for 2 h at room temperature, and the resulting nitrite content (total nitric oxide) was determined through reaction with 2,3-diaminonaphthalene followed by measurement of fluorescence intensity at λex/em = 360/450 nm using a microplate reader. Nitrite content in samples was calculated from linear regression of standards and expressed as relative nitric oxide release (%) normalized to the initial molar amount of compound. NONOate served as positive control.
Figure 3 Spontaneous and thiol-dependent NO^• release from NO-COXIBs; measured using fluorometric Griess assay (n = 2); relative release indicates the percentage of soluble nitrogen species (nitrate + nitrite) detected in the incubation buffer after 24 h compared to the initial molar amount of compounds; NO^• release of NONOate (positive control) exceeded the maximum detection limit; data presented as mean ± range.

[2] = test system: MPC-HIF2α tumor spheroids; assay: Spheroid regrowth assay with [177Lu]LuCl3 treatment; type: cell-based, mouse; conditions: 10 µM compound with 0.25 MBq [177Lu]LuCl3 for six days; for growth response (spheroid size): compared to controls; for 14-day regrowth probability: controls 50%
From the text: Radionuclide therapy is a fast-evolving treatment modality gaining more importance in treating cancer. For treatment of pheochromocytomas and paragangliomas, in particular, somatostatin type 2 receptor-targeted radionuclide therapy with [^177Lu]Lu-(Tyr^3)octreotate is currently investigated in clinical controlled trials (e.g., NCT04029428, NCT03923257, NCT03206060). To assess the additional effects of NO-COXIBs on the outcome of Lu-177 therapy, a simplified in vitro setup was used here, where MPC-HIF2α tumor spheroids were treated with 10 µM of the compounds and simultaneously 0.25 MBq of [^177Lu]LuCl3 for six days.
Genetically modified mouse pheochromocytoma (MPC) cells expressing a codon-optimized Epas1 gene (encoding HIF2α) were cultured as three-dimensional tumor spheroids as published elsewhere. External X-ray beam radiation treatment and [^177Lu]LuCl3 radionuclide treatment was performed as reported previously with some modifications. In brief, spheroids were irradiated with a 200 kV photon beam using a Maxishot X-ray system equipped with a Y.TU/320-D03 tube (YXLON, Hamburg, Germany), growth of spheroids (n = 6) with diameters between 300−400 µm was measured in response to one fixed radiation dose, 15 Gy for X-ray treatment, and 0.25 MBq/mL of [^177Lu]LuCl3 for radionuclide treatment corresponding to a cumulative dose of approximately 2 Gy delivered for 6 days. The applied radiation doses were selected based on the half-maximal spheroid control doses (SCD50) as previously determined for MPC HIF2α spheroids by us. Spheroids were considered as regrown at 100 µm increase in diameter compared to treatment start or at a diameter growth rate of 15 µm per day. Results are reported as spheroid regrowth probability (%).
Figure 5 Effects of NO-COXIBs on radiation treatments of MPC-HIF2α tumor spheroids. (A) Growth responses to X-ray treatment with a radiation dose of 15 Gy in combination with 10 µM NO-COXIBs added to the medium at indicated time points before or after irradiation. (B) Growth responses to [^177Lu]LuCl3 treatment with an initial activity concentration of 0.25 MBq/mL in combination with NO-COXIBs; log2 fold changes in diameter indicate the number of diameter doublings compared to treatment start; 14-day regrowth probability indicates the fraction of spheroids able to regrow within 14 days after treatment start; (black arrows) time point or duration of radiation treatment; (w/o) vehicle controls are shown as black lines; (Ce) celecoxib.

| Compound | Diameter growth rate ± SEM (MPC-HIF2a spheroids) [µm/day] | thiol-dependent NO release [1] | spontaneous NO release [1] | growth response (spheroid size) [2] | 14-day regrowth probability [2] |
| --- | --- | --- | --- | --- | --- |
| COc1ccc(-c2cc(CO[N+](=O)[O-])nn2-c2ccc(S(N)(=O)=O)cc2)cc1 [5f, [5-(4-Methoxyphenyl)-1-(4-sulfamoylphenyl)-1H-pyrazol-3-yl]methyl nitrate] | 61.4 ± 5.2 | 29–53% | 10–22% | prevented spheroids from shrinking in size | 60–80% |
| Cc1ccc(-c2c(Cl)c(CO[N+](=O)[O-])nn2-c2ccc(S(C)(=O)=O)cc2)cc1 [5c, {4-Chloro-1-[4-(methylsulfonyl)phenyl]-5-(p-tolyl)-1H-pyrazol-3-yl}methyl nitrate] | 60.4 ± 5.3 | 17% | no detectable | prevented spheroids from shrinking in size | 60–80% |
| COc1ccc(-c2c(Cl)c(CO[N+](=O)[O-])nn2-c2ccc(S(C)(=O)=O)cc2)cc1 [5d, {4-Chloro-5-(4-methoxyphenyl)-1-[4-(methylsulfonyl)phenyl]-1H-pyrazol-3-yl}methyl nitrate] | 61.2 ± 5.5 | 29–53% | 10–22% | prevented spheroids from shrinking in size | 60–80% |
| CCC(=O)NS(=O)(=O)c1ccc(-n2nc(CO[N+](=O)[O-])c(Cl)c2-c2ccc(C)cc2)cc1 [6a, {4-Chloro-1-[4-(N-propionylsulfamoyl)phenyl]-5-(p-tolyl)-1H-pyrazol-3-yl}methyl nitrate] | 64.1 ± 6.1 | 29–53% | 10–22% | prevented spheroids from shrinking in size | – |
| CCC(=O)NS(=O)(=O)c1ccc(-n2nc(CO[N+](=O)[O-])cc2-c2ccc(OC)cc2)cc1 [6d, {5-(4-Methoxyphenyl)-1-[4-(N-propionylsulfamoyl)phenyl]-1H-pyrazol-3-yl}methyl nitrate] | 63.7 ± 5.9 | 65% | 40% | prevented spheroids from shrinking in size | 100% |
| CCC(=O)NS(=O)(=O)c1ccc(-n2nc(CO[N+](=O)[O-])cc2-c2ccc(C)cc2)cc1 [6c, {1-[4-(N-Propionylsulfamoyl)phenyl]-5-(p-tolyl)-1H-pyrazol-3-yl}methyl nitrate] | 60.0 ± 5.5 | 40% | 26% | prevented spheroids from shrinking in size | 40% |
| CCC(=O)NS(=O)(=O)c1ccc(-n2nc(CO[N+](=O)[O-])c(Cl)c2-c2ccc(OC)cc2)cc1 [6b, {4-Chloro-5-(4-methoxyphenyl)-1-[4-(N-propionylsulfamoyl)phenyl]-1H-pyrazol-3-yl}methyl nitrate] | 63.1 ± 5.3 | 56% | no detectable | – | 100% |

Reference: article PMC9573605, “Exploring Nitric Oxide (NO)-Releasing Celecoxib Derivatives as Modulators of Radioresponse in Pheochromocytoma Cells” (Molecules, 2022)
